Test results taken from patent publication US6737383B1, “Herbicidal oxadiazolidines” (priority 1999, dated 2004).

What was measured:
surinam grass = test: Test B pre/postemergence surinam grass; assay type: in vivo, Brachiaria decumbens
Summary of the method: (§1)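 Response is a visual 0-to-10 score relative to untreated plants, where 0 means no effect and 10 means complete control, taken twelve to sixteen days after application. Treatments went onto soil at planting and onto foliage of 1- to 4-leaf plants, using a surfactant-containing non-phytotoxic solvent.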

cocklebur = test: Test B pre/postemergence cocklebur; assay type: in vivo, Xanthium strumarium
Summary of the method: as §1

corn = test: Test B pre/postemergence corn; assay type: in vivo, Zea mays
Summary of the method: as §1

crabgrass = test: Test B pre/postemergence crabgrass; assay type: in vivo, Digitaria sanguinalis
Summary of the method: as §1

winter wheat [1] = test: Test E winter wheat; assay type: in vivo, Triticum aestivum; conditions: Postemergence
Summary of the method: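 Visual evaluation versus untreated controls after about 21 to 28 days in the greenhouse. Compound was in a surfactant-containing non-phytotoxic solvent; postemergence plants were treated at the 1- to 4-leaf stage, grown in a 60:40 sandy loam and potting mix blend.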

blackgrass = test: Test E blackgrass; assay type: in vivo, Alopecurus myosuroides; conditions: Preemergence
green foxtail = test: Test E green foxtail; assay type: in vivo, Setaria viridis; conditions: Preemergence
Italian ryegrass = test: Test E Italian ryegrass; assay type: in vivo, Lolium multiflorum; conditions: Preemergence
winter wheat [2] = test: Test E winter wheat; assay type: in vivo, Triticum aestivum; conditions: Preemergence
wild oat = test: Test E wild oat; assay type: in vivo, Avena fatua; conditions: Preemergence
winter barley = test: Test E winter barley; assay type: in vivo, Hordeum vulgare; conditions: Preemergence
[3] = Postemergence, Rate 62 g/ha, scale 0 to 10, 0 is no effect, 10 is complete control
[4] = Postemergence, Rate 250 g/ha, scale 0 to 10, 0 no effect, 10 complete control
[5] = Preemergence, Rate 62 g/ha, scale 0 to 10, 0 is no effect, 10 is complete control
[6] = Preemergence, Rate 125 g/ha, scale 0 to 10 (0 no effect, 10 complete control)
[7] = Preemergence, Rate 250 g/ha, scale of 0 to 10 where 0 is no effect and 10 is complete control
[8] = Preemergence, Rate 500 g/ha, scale 0 (no effect) to 10 (complete control)
[9] = Rate 125 g/ha, Postemergence, scale 0 to 10, 0 no effect, 10 complete control
[10] = Rate 500 g/ha, Postemergence, 0 to 10 scale (0 no effect, 10 complete control)
[11] = Rate 250 g/ha, 0 to 100 scale (0 no effect, 100 complete control)
[12] = Rate 500 g/ha, 0 to 100 scale, 0 no effect, 100 complete control
[13] = Rate 125 g/ha, 0 to 100 scale (0 no effect, 100 complete control)
[14] = Rate 500 g/ha, 0 to 100 scale where 0 is no effect and 100 is complete control
[15] = Rate 1000 g/ha, 0 to 100 scale where 0 is no effect and 100 is complete control

CC(C)N(C(=O)n1oc(=O)n(-c2ccccc2)c1=O)c1ccc(F)cc1 [Compound 38]
B. signalgrass plant response rating (surinam grass; [3]): 0
B. signalgrass plant response rating (surinam grass; [4]): 0
Plant response rating, B. signalgrass (surinam grass; [5]): 3
Plant response rating, B. signalgrass (surinam grass; [6]): 4
Plant response rating, B. signalgrass (surinam grass; [7]): 8
B. signalgrass plant response rating (surinam grass; [8]): 8
B. signalgrass plant response rating (surinam grass; [9]): 0
B. signalgrass plant response rating (surinam grass; [10]): 0
Cocklebur plant response rating (cocklebur; [3]): 0
Cocklebur plant response rating (cocklebur; [4]): 1
Plant response rating, Cocklebur (cocklebur; [5]): 0
Plant response rating, Cocklebur (cocklebur; [6]): 0
Cocklebur plant response rating (cocklebur; [8]): 0
Cocklebur plant response rating (cocklebur; [9]): 0
Cocklebur plant response rating (cocklebur; [10]): 1
Corn plant response rating (corn; [3]): 0
Corn plant response rating (corn; [4]): 0
Plant response rating, Corn (corn; [5]): 0
Plant response rating, Corn (corn; [6]): 0
Plant response rating, Corn (corn; [7]): 0
Corn plant response rating (corn; [8]): 0
Corn plant response rating (corn; [9]): 0
Corn plant response rating (corn; [10]): 0
Crabgrass plant response rating (crabgrass; [3]): 0
Crabgrass plant response rating (crabgrass; [4]): 8
Plant response rating, Crabgrass (crabgrass; [5]): 2
Plant response rating, Crabgrass (crabgrass; [6]): 5
Plant response rating, Crabgrass (crabgrass; [7]): 10
Crabgrass plant response rating (crabgrass; [8]): 10
Crabgrass plant response rating (crabgrass; [9]): 7
Crabgrass plant response rating (crabgrass; [10]): 9
Plant response rating, Wheat (winter) (winter wheat [1]; Rate 125 g/ha, 0 to 100 scale): 10
Plant response rating, Wheat (winter) (winter wheat [1]; [11]): 10
Plant response rating, Wheat (winter) (winter wheat [1]; [12]): 10
Plant response rating, Blackgrass (blackgrass; [13]): 25
Plant response rating, Blackgrass (blackgrass; Rate 250 g/ha, 0 to 100 scale): 45
Plant response rating, Blackgrass (blackgrass; [14]): 35
Plant response rating, Green foxtail (green foxtail; [13]): 80
Plant response rating, Green foxtail (green foxtail; Rate 250 g/ha, 0 to 100 scale): 90
Plant response rating, Green foxtail (green foxtail; [14]): 100
Plant response rating, I. Ryegrass (Italian ryegrass; [13]): 0
Plant response rating, I. Ryegrass (Italian ryegrass; Rate 250 g/ha, 0 to 100 scale): 20
Plant response rating, I. Ryegrass (Italian ryegrass; [14]): 80
Plant response rating, Wheat (winter) (winter wheat [2]; [13]): 10
Plant response rating, Wheat (winter) (winter wheat [2]; Rate 250 g/ha, 0 to 100 scale): 0
Plant response rating, Wheat (winter) (winter wheat [2]; [14]): 10
Plant response rating, Wild oat (wild oat; [13]): 0
Plant response rating, Wild oat (wild oat; [14]): 20
Plant response rating, Barley (winter) (winter barley; [13]): 0
Plant response rating, Barley (winter) (winter barley; Rate 250 g/ha, 0 to 100 scale): 0
Plant response rating, Barley (winter) (winter barley; [14]): 0

Cc1ccc(N(C(=O)n2oc(=O)n(-c3ccccc3C)c2=O)C(C)C)cc1 [Compound 40]
B. signalgrass plant response rating (surinam grass; [3]): 0
B. signalgrass plant response rating (surinam grass; [4]): 0
Plant response rating, B. signalgrass (surinam grass; [5]): 0
Plant response rating, B. signalgrass (surinam grass; [6]): 0
Plant response rating, B. signalgrass (surinam grass; [7]): 5
B. signalgrass plant response rating (surinam grass; [8]): 7
B. signalgrass plant response rating (surinam grass; [9]): 0
B. signalgrass plant response rating (surinam grass; [10]): 0
Cocklebur plant response rating (cocklebur; [3]): 0
Cocklebur plant response rating (cocklebur; [4]): 0
Plant response rating, Cocklebur (cocklebur; [5]): 0
Plant response rating, Cocklebur (cocklebur; [6]): 0
Plant response rating, Cocklebur (cocklebur; [7]): 0
Cocklebur plant response rating (cocklebur; [8]): 0
Cocklebur plant response rating (cocklebur; [9]): 0
Cocklebur plant response rating (cocklebur; [10]): 0
Corn plant response rating (corn; [3]): 0
Corn plant response rating (corn; [4]): 0
Plant response rating, Corn (corn; [5]): 0
Plant response rating, Corn (corn; [6]): 0
Plant response rating, Corn (corn; [7]): 0
Corn plant response rating (corn; [8]): 0
Corn plant response rating (corn; [9]): 0
Corn plant response rating (corn; [10]): 0
Crabgrass plant response rating (crabgrass; [3]): 0
Crabgrass plant response rating (crabgrass; [4]): 6
Plant response rating, Crabgrass (crabgrass; [5]): 2
Plant response rating, Crabgrass (crabgrass; [6]): 4
Plant response rating, Crabgrass (crabgrass; [7]): 7
Crabgrass plant response rating (crabgrass; [8]): 10
Crabgrass plant response rating (crabgrass; [9]): 1
Crabgrass plant response rating (crabgrass; [10]): 7
Plant response rating, Wheat (winter) (winter wheat [1]; [11]): 0
Plant response rating, Wheat (winter) (winter wheat [1]; Rate 1000 g/ha, 0 to 100 scale, 0 is no effect and 100 is complete control): 0
Plant response rating, Wheat (winter) (winter wheat [1]; [12]): 0
Plant response rating, Blackgrass (blackgrass; Rate 250 g/ha, 0 to 100 scale): 40
Plant response rating, Blackgrass (blackgrass; [14]): 60
Plant response rating, Blackgrass (blackgrass; [15]): 70
Plant response rating, Green foxtail (green foxtail; Rate 250 g/ha, 0 to 100 scale): 70
Plant response rating, Green foxtail (green foxtail; [14]): 90
Plant response rating, Green foxtail (green foxtail; [15]): 90
Plant response rating, I. Ryegrass (Italian ryegrass; Rate 250 g/ha, 0 to 100 scale): 30
Plant response rating, I. Ryegrass (Italian ryegrass; [14]): 70
Plant response rating, I. Ryegrass (Italian ryegrass; [15]): 70
Plant response rating, Wheat (winter) (winter wheat [2]; Rate 250 g/ha, 0 to 100 scale): 20
Plant response rating, Wheat (winter) (winter wheat [2]; [14]): 30
Plant response rating, Wheat (winter) (winter wheat [2]; [15]): 40
Plant response rating, Wild oat (wild oat; [14]): 50
Plant response rating, Wild oat (wild oat; [15]): 60
Plant response rating, Barley (winter) (winter barley; Rate 250 g/ha, 0 to 100 scale): 30
Plant response rating, Barley (winter) (winter barley; [14]): 40
Plant response rating, Barley (winter) (winter barley; [15]): 50
